# Test results from patent publication US11331299B2, “Medicinal use of serrulatane diterpenes” (The University of Sydney, priority 2016, dated 2022).
# pIC50: −log10 of the molar value.
# Experiments:
# Phospholipase sPLA2-V = molecular target: T1, Phospholipase sPLA2-V (Homo sapiens, UniProt P39877); assay: Phospholipase sPLA2-V; type: biochemical; conditions: assay year 2015, read-out: % Control Response
# T1 construct: host or cells: E. coli
# T1 sequence (P39877 21-138): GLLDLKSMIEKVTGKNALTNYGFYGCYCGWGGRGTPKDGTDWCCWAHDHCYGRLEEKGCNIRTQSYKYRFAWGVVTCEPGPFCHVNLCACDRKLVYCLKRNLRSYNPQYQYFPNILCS
# Description: (§1) The in vitro pharmacological studies were conducted by Eurofins PanLab (Taiwan) using the parameters shown in Table 13 with respect to appropriate literature references.
# HDAC4 (h) = HDAC4 (h) (Homo sapiens, UniProt P56524); assay: Epigenetic enzyme assay, Histone deacetylase (HDACs); type: biochemical; conditions: read-out: % Inhibition of Control Values
# PRMT3 (h) = PRMT3 (h) (Homo sapiens, UniProt O60678); assay: Epigenetic enzyme assay, Methyltransferases (MTs); type: biochemical; conditions: 10 μM; read-out: % Inhibition of Control Values
# NF-κB = assay: Transcription Response, NF-κB; type: cell-based, Human
# Description: as §1
# [1] = tested on: Chemokine CXCR1/2 (IL-8, Non-Selective); assay: Chemokine CXCR1/2 (IL-8, Non-Selective) radio ligand binding; set-up: species or system Human; conditions: 10 μM; assay year 2015
# Description: as §1
# PB1(2) (h) bromodomain = molecular target: T2, PB1(2) (h) bromodomain (Homo sapiens, UniProt Q86U86); assay: Epigenetic binding assay, Bromodomain; conditions: read-out: % Inhibition of Control Specific Binding
# T2 construct: Bromodomain
# Chemokine CCR2B = molecular target: T3, Chemokine CCR2B (Homo sapiens, UniProt P41597); assay: Chemokine CCR2B radio ligand binding; conditions: assay year 2015, read-out: % Control Response
# T3 construct: expressed in transfected cells; host or cells: CHO-K1 cells
# T3 sequence (P41597 1-360 isoform P41597-2): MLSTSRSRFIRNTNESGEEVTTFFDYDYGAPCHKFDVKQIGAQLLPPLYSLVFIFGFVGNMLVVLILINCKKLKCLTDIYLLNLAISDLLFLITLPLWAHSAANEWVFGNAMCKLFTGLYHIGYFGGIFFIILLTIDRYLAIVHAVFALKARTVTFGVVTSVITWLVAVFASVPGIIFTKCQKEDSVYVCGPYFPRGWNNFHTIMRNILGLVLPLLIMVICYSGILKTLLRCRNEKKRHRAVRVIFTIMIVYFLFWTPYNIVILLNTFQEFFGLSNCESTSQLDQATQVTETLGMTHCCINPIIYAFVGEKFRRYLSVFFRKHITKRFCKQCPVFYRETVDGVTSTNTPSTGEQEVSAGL
# Description: as §1
# [2] = molecular target: T4, Nicotinamide N-methyltransferase (h) (Homo sapiens, UniProt P40261); assay: Epigenetic enzyme assay, Small molecule methyltransferases; type: biochemical; conditions: read-out: % Inhibition of Control Values
# T4 sequence (P40261 1-264): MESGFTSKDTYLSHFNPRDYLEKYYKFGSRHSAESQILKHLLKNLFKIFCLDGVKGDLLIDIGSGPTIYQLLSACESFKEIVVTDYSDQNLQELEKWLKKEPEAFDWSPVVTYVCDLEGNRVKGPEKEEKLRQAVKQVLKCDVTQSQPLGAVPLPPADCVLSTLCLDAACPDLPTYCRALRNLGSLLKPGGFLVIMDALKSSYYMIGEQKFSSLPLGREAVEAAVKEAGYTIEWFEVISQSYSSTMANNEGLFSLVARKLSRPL
# TIP60(h) = TIP60(h) (Homo sapiens, UniProt Q92993); assay: Epigenetic enzyme assay, Histone acetyltransferases (HATs); type: biochemical; conditions: read-out: % Inhibition of Control Values
# [3] = molecular target: T5, Epidermal Growth Factor (EGF) (Homo sapiens, UniProt P00533); assay: Epidermal Growth Factor (EGF) radio ligand binding; conditions: assay year 2015, read-out: % Control Response
# T5 construct: Human A431 cells; endogenous in cells; host or cells: A431 cells
# Description: as §1
# H3K27 me3 = assay: Cell-based detection methyl modifications; conditions: read-out: % Inhibition of Control Values
# HDAC1 (h) = HDAC1 (h) (Homo sapiens, UniProt Q13547); assay: Epigenetic enzyme assay, Histone deacetylase (HDACs); type: biochemical; conditions: read-out: % Inhibition of Control Values
# [4] = tested on: 43 cancer cell lines and one normal cell line; assay: In vitro cell viability assay (intracellular ATP, 72 hour); type: cell-based; conditions: 10 μM
# HDAC1 (h), sequence (Q13547 whole entry): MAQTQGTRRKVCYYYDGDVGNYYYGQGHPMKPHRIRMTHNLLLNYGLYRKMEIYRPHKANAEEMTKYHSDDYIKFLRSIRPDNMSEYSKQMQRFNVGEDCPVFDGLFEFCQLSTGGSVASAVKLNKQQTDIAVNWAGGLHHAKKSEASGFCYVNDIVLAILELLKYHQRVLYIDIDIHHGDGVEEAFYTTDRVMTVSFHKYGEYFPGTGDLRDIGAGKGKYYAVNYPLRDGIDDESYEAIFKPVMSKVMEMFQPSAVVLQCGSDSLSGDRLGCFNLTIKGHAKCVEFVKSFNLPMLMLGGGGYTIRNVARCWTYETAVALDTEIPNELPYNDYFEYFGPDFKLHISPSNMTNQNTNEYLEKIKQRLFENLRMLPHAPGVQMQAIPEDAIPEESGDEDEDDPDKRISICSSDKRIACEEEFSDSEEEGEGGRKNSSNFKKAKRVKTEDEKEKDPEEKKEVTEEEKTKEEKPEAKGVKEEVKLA
# T5 sequence (P00533 25-1210): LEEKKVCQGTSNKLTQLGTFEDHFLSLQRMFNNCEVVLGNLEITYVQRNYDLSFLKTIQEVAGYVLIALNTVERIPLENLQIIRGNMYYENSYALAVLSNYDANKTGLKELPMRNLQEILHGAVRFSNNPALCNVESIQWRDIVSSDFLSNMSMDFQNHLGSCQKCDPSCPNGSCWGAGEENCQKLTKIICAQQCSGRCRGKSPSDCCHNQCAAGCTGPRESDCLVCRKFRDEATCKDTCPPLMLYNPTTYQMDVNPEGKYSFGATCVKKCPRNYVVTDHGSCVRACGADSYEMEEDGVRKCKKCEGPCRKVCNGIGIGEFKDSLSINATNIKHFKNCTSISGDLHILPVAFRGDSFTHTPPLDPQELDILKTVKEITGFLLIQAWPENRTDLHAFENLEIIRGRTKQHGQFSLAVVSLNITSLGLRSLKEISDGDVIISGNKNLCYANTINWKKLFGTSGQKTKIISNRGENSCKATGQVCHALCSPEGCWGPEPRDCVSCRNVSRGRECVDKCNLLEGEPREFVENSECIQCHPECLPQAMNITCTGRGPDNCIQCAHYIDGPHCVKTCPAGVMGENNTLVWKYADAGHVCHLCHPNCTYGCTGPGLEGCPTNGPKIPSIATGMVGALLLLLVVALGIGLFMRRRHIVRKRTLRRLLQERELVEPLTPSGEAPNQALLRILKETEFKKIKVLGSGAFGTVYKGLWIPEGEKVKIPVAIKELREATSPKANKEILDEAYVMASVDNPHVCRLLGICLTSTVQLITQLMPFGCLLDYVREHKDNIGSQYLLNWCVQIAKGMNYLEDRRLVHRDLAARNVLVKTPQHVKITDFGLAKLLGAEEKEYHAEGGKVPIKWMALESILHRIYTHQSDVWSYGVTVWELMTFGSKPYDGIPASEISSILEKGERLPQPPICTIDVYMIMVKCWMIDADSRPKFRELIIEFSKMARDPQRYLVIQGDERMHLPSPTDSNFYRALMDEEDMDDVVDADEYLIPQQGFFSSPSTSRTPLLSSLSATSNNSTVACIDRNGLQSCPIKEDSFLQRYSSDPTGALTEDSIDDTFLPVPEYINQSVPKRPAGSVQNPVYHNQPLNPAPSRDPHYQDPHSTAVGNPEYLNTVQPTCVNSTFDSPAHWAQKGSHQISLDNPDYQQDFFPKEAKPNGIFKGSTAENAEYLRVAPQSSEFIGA
# TIP60(h), sequence (Q92993 whole entry): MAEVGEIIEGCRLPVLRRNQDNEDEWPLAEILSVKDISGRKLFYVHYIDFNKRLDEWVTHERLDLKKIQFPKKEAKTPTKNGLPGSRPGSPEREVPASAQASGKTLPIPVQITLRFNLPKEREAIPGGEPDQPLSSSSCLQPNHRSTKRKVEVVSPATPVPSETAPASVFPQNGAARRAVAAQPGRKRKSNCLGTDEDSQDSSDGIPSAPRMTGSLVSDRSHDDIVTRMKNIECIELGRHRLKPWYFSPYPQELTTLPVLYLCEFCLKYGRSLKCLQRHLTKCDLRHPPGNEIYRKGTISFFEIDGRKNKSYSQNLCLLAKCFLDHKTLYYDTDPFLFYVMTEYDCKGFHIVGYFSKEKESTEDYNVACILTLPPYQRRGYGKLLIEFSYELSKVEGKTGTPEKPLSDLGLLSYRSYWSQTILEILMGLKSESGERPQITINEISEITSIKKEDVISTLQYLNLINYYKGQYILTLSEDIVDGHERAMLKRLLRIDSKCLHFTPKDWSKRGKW
# PRMT3 (h), sequence (O60678 whole entry): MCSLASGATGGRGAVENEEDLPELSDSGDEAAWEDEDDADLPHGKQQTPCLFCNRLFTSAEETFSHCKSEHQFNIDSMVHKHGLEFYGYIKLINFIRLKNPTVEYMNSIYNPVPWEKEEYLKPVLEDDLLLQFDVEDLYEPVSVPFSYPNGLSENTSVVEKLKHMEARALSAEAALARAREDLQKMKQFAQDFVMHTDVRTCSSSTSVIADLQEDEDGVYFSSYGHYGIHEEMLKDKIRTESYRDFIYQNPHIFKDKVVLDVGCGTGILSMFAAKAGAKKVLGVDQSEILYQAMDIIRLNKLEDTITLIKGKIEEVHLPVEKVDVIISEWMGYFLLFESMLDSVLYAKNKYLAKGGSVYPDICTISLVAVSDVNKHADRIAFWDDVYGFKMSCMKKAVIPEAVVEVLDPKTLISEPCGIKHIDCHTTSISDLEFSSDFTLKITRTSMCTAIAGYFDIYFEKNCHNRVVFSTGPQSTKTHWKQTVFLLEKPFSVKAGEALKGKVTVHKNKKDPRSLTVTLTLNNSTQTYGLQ
# T2 sequence (Q86U86 177-287 limits assumed): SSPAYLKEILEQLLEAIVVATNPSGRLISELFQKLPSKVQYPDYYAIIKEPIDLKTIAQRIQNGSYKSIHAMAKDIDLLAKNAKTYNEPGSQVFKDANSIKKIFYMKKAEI
# HDAC4 (h), sequence (P56524 whole entry): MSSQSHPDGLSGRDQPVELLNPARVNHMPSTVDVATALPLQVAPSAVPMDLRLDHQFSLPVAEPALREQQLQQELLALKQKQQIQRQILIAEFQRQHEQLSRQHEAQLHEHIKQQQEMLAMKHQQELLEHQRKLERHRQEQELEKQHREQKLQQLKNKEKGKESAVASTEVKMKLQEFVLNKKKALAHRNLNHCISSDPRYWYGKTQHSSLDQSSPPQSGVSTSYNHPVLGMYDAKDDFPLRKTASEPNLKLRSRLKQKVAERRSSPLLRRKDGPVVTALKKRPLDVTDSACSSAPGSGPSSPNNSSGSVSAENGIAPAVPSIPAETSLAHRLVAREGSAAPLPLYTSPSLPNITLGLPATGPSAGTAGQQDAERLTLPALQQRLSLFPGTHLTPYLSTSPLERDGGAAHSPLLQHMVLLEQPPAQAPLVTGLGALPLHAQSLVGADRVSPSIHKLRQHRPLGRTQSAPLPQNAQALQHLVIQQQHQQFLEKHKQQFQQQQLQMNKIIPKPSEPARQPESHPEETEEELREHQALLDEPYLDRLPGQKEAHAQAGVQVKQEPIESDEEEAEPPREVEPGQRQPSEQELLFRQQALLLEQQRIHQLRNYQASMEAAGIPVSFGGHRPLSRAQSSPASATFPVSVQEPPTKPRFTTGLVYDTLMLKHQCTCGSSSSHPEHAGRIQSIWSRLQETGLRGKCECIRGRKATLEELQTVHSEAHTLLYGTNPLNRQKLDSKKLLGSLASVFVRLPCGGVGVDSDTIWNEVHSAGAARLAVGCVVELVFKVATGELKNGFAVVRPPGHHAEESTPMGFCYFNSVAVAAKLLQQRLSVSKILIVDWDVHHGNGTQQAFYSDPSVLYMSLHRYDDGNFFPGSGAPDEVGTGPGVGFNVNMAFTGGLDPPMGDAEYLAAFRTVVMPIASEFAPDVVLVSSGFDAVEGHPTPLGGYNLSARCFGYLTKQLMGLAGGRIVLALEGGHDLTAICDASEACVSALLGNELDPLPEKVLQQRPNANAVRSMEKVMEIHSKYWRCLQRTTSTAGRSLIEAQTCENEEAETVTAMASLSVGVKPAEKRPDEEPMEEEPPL
compound,measurement,setting,value
"CC(C)=CCC[C@H](CO)[C@@H]1CC[C@@H](C)c2c1cc(C)c(O)c2O [Compound 1, 7,8,18-trihydroxyserrulat-14-ene]",remaining activity at 10 µM,Phospholipase sPLA2-V,4%
same,inhibition at 10 µM,HDAC4 (h),-73%
same,inhibition at 10 µM,PRMT3 (h),22%
same,Resp Av %,"NF-κB; Antagonist, Conc 0.001 μM",−25%
same,Resp Av %,"NF-κB; Antagonist, Conc 0.01 μM",−5%
same,Resp Av %,"NF-κB; Antagonist, Conc 0.1 μM",0%
same,Resp Av %,"NF-κB; Antagonist, Conc 1 μM",17%
same,Resp Av %,"NF-κB; Antagonist, Conc 10 μM",103%
same,pIC50,"NF-κB; Homo sapiens, Antagonist",5.85
same,pIC50,"NF-κB; Homo sapiens, transcription response NF-κB",5.87
same,pIC50,NF-κB; transcription response NF-κB,6.16
same,% Control Response,[1],30%
same,inhibition at 10 µM,PB1(2) (h) bromodomain,31%
same,remaining activity at 10 µM,Chemokine CCR2B,1%
same,inhibition at 10 µM,[2],13%
same,inhibition at 10 µM,TIP60(h),20%
same,remaining activity at 10 µM,[3],-8%
same,inhibition at 10 µM,H3K27 me3,-8%
same,inhibition at 10 µM,HDAC1 (h),-2%
same,reduction in cell viability,[4]; 12 cancer cell lines with moderate reduction,−40 to −80%
same,reduction in cell viability,[4]; cancer cell lines with potent reduction,−80 to −100%
same,% Cell growth,[4]; 4T1 (Breast Cancer),52%
same,% Cell growth,[4]; A375 (Skin),−5%
same,% Cell growth,[4]; A549/ATCC (Non-Small Cell Lung Cancer),−92%
same,% Cell growth,[4]; A-431 (Skin),−89%
same,% Cell growth,[4]; A-498 (Kidney Cancer),−43%
same,% Cell growth,[4]; ACHN (Kidney Cancer),−41%
same,% Cell growth,[4]; B16-F0 (Melanoma),7%
same,% Cell growth,[4]; BT474 (Breast Cancer),−67%
same,% Cell growth,[4]; CT26.WT (Colon Cancer),2%
same,% Cell growth,[4]; DLD-1 (Colon Cancer),−65%
same,% Cell growth,[4]; H33HJ-JA1 (Lymphoma),−90%
same,% Cell growth,[4]; HC-4 (Liver Cancer),−91%
same,% Cell growth,[4]; HCT-15 (Colon Cancer),−62%
same,% Cell growth,[4]; HCT-116 (Colon Cancer),−74%
same,% Cell growth,[4]; HT-29 (Colon Cancer),−66%
same,% Cell growth,[4]; Hep3B (Liver Cancer),−84%
same,% Cell growth,[4]; HepG2 (Liver Cancer),−23%
same,% Cell growth,[4]; K-562 (Leukemia),−55%
same,% Cell growth,[4]; KATO III (Stomach),−91%
same,% Cell growth,[4]; LL/2 (Non-Small Cell Lung Cancer),−62%
same,% Cell growth,[4]; LNCaP (Prostrate Cancer),−86%
same,% Cell growth,[4]; MCF7 (Breast Cancer),−71%
same,% Cell growth,[4]; MCF-7 AdrR (Breast Cancer),−90%
same,% Cell growth,[4]; MDA-MB-231 (Breast Cancer),−92%
same,% Cell growth,[4]; MDA-MB-468 (Breast Cancer),−92%
same,% Cell growth,[4]; MES-SA (Uterus),−88%
same,% Cell growth,[4]; MIA PaCa-2 (Pancreas),3%
same,% Cell growth,[4]; MOLT-4 (Leukemia),−94%
same,% Cell growth,[4]; MV-411 (Leukemia),−96%
same,% Cell growth,[4]; NCI-H460 (Non-Small Cell Lung Cancer),−37%
same,% Cell growth,[4]; OVCAR-3 (Ovarian Cancer),−93%
same,% Cell growth,[4]; PANC-1 (Pancreas),36%
same,% Cell growth,[4]; PC-3 (Prostrate Cancer),70%
same,% Cell growth,[4]; PC-6 (Non-Small Cell Lung Cancer),−62%
same,% Cell growth,[4]; Ramos (Lymphoma),−92%
same,% Cell growth,[4]; SK-MEL-5 (Melanoma),−96%
same,% Cell growth,[4]; SK-N-MC (Brain),−87%
same,% Cell growth,[4]; SK-OV-3 (Ovarian Cancer),−35%
same,% Cell growth,[4]; SW-620 (Colon Cancer),−89%
same,% Cell growth,[4]; T-47D (Breast Cancer),20%
same,% Cell growth,[4]; U937 (Lymphoma),−86%
same,% Cell growth,[4]; U-87 MG (Brain),7%
